Patent US11078222B2, “Hydroxybenzoic acid derivatives, methods and uses thereof” (UNiVERSIDADE DO PORTO, priority 2016, dated 2021)
One block for each compound: values may come before it.

How the values were obtained:
[1] = Iron (II) chelation, ferrozine assay; assay type: biochemical; settings: compound 100 μM
Method: In an embodiment, the iron (II) chelation capacity of the novel AntiOxBENs was evaluated by the ferrozine assay using EDTA (ethylenediaminetetracetic acid) as reference. The iron chelating properties of protocatechuic and gallic acids, and MitoQ, a mitochondriotropic antioxidant, were also evaluated (FIG. 2).
In an embodiment, AntiOxBENs iron chelating properties were evaluated by the spectrophotometric ferrozine method performed in a multiplate reader (Powerwave XS Microplate Reader) of Bio-Tech instruments.
In an embodiment, the AntiOxBENs iron chelating properties were evaluated as follows: in each well, a solution of the test compound (100 μM) and ammonium iron (II) sulphate in ammonium acetate (20 μM) were added, incubated for 10 min and the absorbance was read at 562 nm. Then, a freshly prepared solution of ferrozine (5 mM) was added to each well (96 μM final concentration). After a new incubation at 37° C. for 10 min period, the absorbance of [Fe(ferrozine)3]^2+ complex was measured at 562 nm. Blank wells were run using DMSO instead of the test compounds. EDTA was used as a reference. All compounds were tested at a final concentration of 100 μM. The absorbance of the first reading was subtracted to the final values to abolish any absorbance due to the test compounds.

[2] = Redox potential by differential pulse and cyclic voltammetry, glassy carbon electrode; assay type: physicochemical; settings: physiological pH 7.4
Method: In an embodiment, the oxidative behaviour of the parent antioxidants (protocatechuic and gallic acids) and AntiOxBENs was evaluated at physiological pH 7.4, by differential pulse and cyclic voltammetry, using a glassy carbon working electrode. […] For pyrogallol derivatives (gallic acid, AntiOxBEN2, AntiOxBEN3), a significant decrease in redox potentials was observed (Ep=0.163-0.168 V) (Table 1).
In an embodiment, the electrochemical analytical data was obtained using a computer controlled potentiostat Autolab PGSTAT302N (Metrohm Autolab, Utrecht, Netherlands). Generally, cyclic voltammetry (CV) data was acquired at a scan rate of 50 mVs^−1. Differential pulse voltammetry (DPV) results were acquired at a step potential of 4 mV, pulse amplitude of 50 mV and scan rate of 8 mVs^−1. The electrochemical signals were monitored by the General Purpose Electrochemical System (GPES) version 4.9, software package. All electrochemical experiments were performed at room temperature in an electrochemical cell that was placed in a Faraday cage in order to minimize the contribution of background noise to the analytical signal.
In an embodiment, the process of evaluation of AntiOxBENs redox properties was conducted as follows: stock solutions of each compound (10 mM) were prepared by dissolving the appropriate amount in ethanol. The voltammetric working solutions were prepared in the electrochemical cell, at a final concentration of 0.1 mM. The […] supporting electrolyte was prepared by diluting 6.2 mL of 0.2 M dipotassium hydrogen phosphate and 43.8 mL of 0.2 M potassium dihydrogen phosphate to 100 mL. Voltammetric data was acquired in a three-electrode system consisting of a glassy carbon electrode (GCE, d=2 mm) as working electrode, a counter electrode of platinum wire and a saturated Ag/AgCl reference electrode. In an embodiment, the evaluation of AntiOxBENs lipophilic properties was performed as follows: the electrochemical cell was a four-electrode system with arrays of micro liquid-liquid interfaces (μITIES) containing two Ag/AgCl reference electrodes and two counter electrodes of Pt, one in each phase. The microporous membrane was sealed with a fluorosilicone sealant (Dow Corning 730) onto a glass cylinder which was filled with 4.0 mL of the aqueous phase, where the aliquots of AntiOxBENs solutions were added. The membrane was then immersed into the organic phase contained in the cell. The organic phase reference solution (a 2 mM BTPPACI+2 mM NaCl aqueous solution) was mechanically stabilized The aqueous supporting electrolyte solution was a Tris-HCl buffer 10 mM pH 7.0.

[3] = DPPH radical scavenging activity (total antioxidant capacity); assay type: biochemical; settings: ethanol, 515 nm, 45 min
[4] = tested on: rat liver mitochondria (RLM) membranes; assay: RLM lipid peroxidation, TBARS assay (FeSO4/H2O2/ascorbate); settings: 5 μM; for prevention of TBARS formation / mitochondria lipid peroxidation: FeSO4/H2O2/ascorbate
[5] = ABTS radical cation scavenging activity; assay type: biochemical; settings: ethanol, 15 min
[6] = GO radical scavenging activity; assay type: biochemical; settings: ethanol, 428 nm, 30 min
[7] = tested on: rat liver mitochondria (RLM); assay: Mitochondrial transmembrane electric potential (safranine fluorescence); assay type: biochemical
Method: (§1) In an embodiment, and as an example, the toxicity effects of some AntiOxBENs and MitoQ on the mitochondrial bioenergetics, namely on RLM Δψ and respiration parameters, were measured. The Δψ represents the main component of the electrochemical gradient generated by mitochondrial respiration and accounts for more than 90% of the total available energy. For mitochondrial respiration assays, glutamate/malate (for complex I) and succinate (for complex II) were used as substrates. In addition, the mitochondrial oxidative phosphorylation coupling index, known as respiratory control ratio (RCR, state 3/state 4 respiration) and ADP/O index (the coupling between ATP synthesis and oxygen consumption) were also calculated. AntiOxBENs and MitoQ were tested at antioxidant-relevant concentrations, with 10 μM being the highest concentration.
In an embodiment, the evaluation of AntiOxBENs effect on mitochondrial transmembrane electric potential (Δψ) was performed as follows: the mitochondrial transmembrane electric potential (Δψ) was estimated through the evaluation of fluorescence changes of safranine (5 μM) and was recorded on a spectrofluorometer operating at excitation and emission wavelengths of 495 and 586 nm, with a slit width of 5 nm. Increasing concentrations of AntiOxBENs (2.5-10 μM) were added to the reaction medium (200 mM sucrose, 1 mM KH2PO^4, 10 mM Tris (pH 7.4) and 10 μM EGTA) containing respiratory substrates glutamate/malate (5 mM and 2.5 mM respectively) or succinate (5 mM) and RLM (0.5 mg in 2 mL final volume) and allowed to incubate for a 5 min period prior to initiate the assay, at 25° C. In this assay, safranine (5 μM) and ADP (25 nmol) were used to initiate the assay and to induce depolarization, respectively. Then, 1 μM FCCP was added at the end of all experiments to depolarize mitochondria. Δψ was calculated using a calibration curve obtained when RLM were incubated in a K^+-free reaction medium containing 200 mM sucrose, 1 mM NaH2PO4, 10 mM Tris (pH 7.4) and 10 μM EGTA, supplemented with 0.4 μg valinomicin. […] “Repolarization” corresponded to the recovery of membrane potential after the complete phosphorylation of ADP added. Lag phase reflected the time required to phosphorylate the added ADP. Isolated RLM developed a Δψ≈226 mV and Δψ≈202 mV (negative inside) when glutamate/malate or succinate were used, respectively. Data are means±SEM of five independent experiments.

[8] = tested on: rat liver mitochondria (RLM); assay: Mitochondrial respiration of isolated RLM (Clark-type oxygen electrode): RCR, ADP/O; assay type: biochemical
Method: as §1
In an embodiment, the evaluation of AntiOxBENs effect on mitochondrial respiration was performed as follows: the respiration of isolated RLM was evaluated polarographically with a Clark-type oxygen electrode, connected to a suitable recorder in a 1 mL thermostated water-jacketed chamber with magnetic stirring, at 37° C. […] Increasing concentrations of AntiOxBENs (2.5-10 μM) were added to the reaction medium containing respiratory substrates glutamate/malate (10 mM and 5 mM respectively) or succinate (5 mM) and RLM (1 mg) and allowed to incubate for a 5 min period prior to the assay. State 2 was considered as the respiration during the 5 min incubation time with AntiOxBENs. […] State 4 was determined after ADP phosphorylation finished. Subsequent addition of oligomycin (2 μg/ml) inhibited ATPsynthase and originated the oligomycin-inhibition respiration state. Finally, 1 μM FCCP was added to induce uncoupled respiration. […] Data are means are means±SEM of seven independent experiments.

Compound: O=C(O)CN(CCN(CC(=O)O)CC(=O)O)CC(=O)O [EDTA, ethylenediaminetetracetic acid]
ability to chelate ferrous iron [1]: chelate all the iron available in solution

Compound: O=C(O)c1cc(O)c(O)c(O)c1 [Gallic acid]
Ep (redox potential) [2]: 0.163 V
IC50 [3]: 9.9 µM
prevention of TBARS formation / mitochondria lipid peroxidation [4]: most effective
IC50 [5]: 7.8 µM
IC50 [6]: 2.5 µM
ability to chelate ferrous iron [1]: able to chelate iron efficiently

Compound: COC1=C(OC)C(=O)C(CCCCCCCCCC[P+](c2ccccc2)(c2ccccc2)c2ccccc2)=C(C)C1=O.CS(=O)(=O)[O-] [MitoQ, [10-(4,5-dimethoxy-2-methyl-3,6-dioxo-1,4-cyclohexadien-1-yl)decyl]triphenylphosphonium methanesulfonate, reference compound]
Δψ after ADP addition ([7]; 10 μM): Δψ collapse after ADP addition
ADP-induced depolarization (ΔΨ in - mV) ([7]; Glutamate/Malate, 2.5 μM): 173.0 ± 9.4 - mV
Lag Phase ([7]; Glutamate/Malate, 2.5 μM): 86.5 ± 5.6 s
Maximum potential (ΔΨ in - mV) ([7]; Glutamate/Malate, 2.5 μM): 195.7 ± 10.8 - mV
Repolarization Potential (ΔΨ in - mV) ([7]; Glutamate/Malate, 2.5 μM): 191.1 ± 11.7 - mV
ADP-induced depolarization (ΔΨ in - mV) ([7]; Glutamate/Malate, 5 μM): 173.5 ± 8.9 - mV
Lag Phase ([7]; Glutamate/Malate, 5 μM): 84.5 ± 7.1 s
Maximum potential (ΔΨ in - mV) ([7]; Glutamate/Malate, 5 μM): 188.3 ± 10.6 - mV
Repolarization Potential (ΔΨ in - mV) ([7]; Glutamate/Malate, 5 μM): 185.0 ± 9.4 - mV
Maximum potential (ΔΨ in - mV) ([7]; Glutamate/Malate, 10 μM): 113.8 ± 10.2 - mV
ADP-induced depolarization (ΔΨ in - mV) ([7]; Succinate, 2.5 μM): 162.1 ± 6.0 - mV
Lag Phase ([7]; Succinate, 2.5 μM): 104.8 ± 9.9 s
Maximum potential (ΔΨ in - mV) ([7]; Succinate, 2.5 μM): 181.6 ± 8.3 - mV
Repolarization Potential (ΔΨ in - mV) ([7]; Succinate, 2.5 μM): 182.7 ± 9.2 - mV
ADP-induced depolarization (ΔΨ in - mV) ([7]; Succinate, 5 μM): 157.1 ± 6.4 - mV
Lag Phase ([7]; Succinate, 5 μM): 92.6 ± 19.4 s
Maximum potential (ΔΨ in - mV) ([7]; Succinate, 5 μM): 170.2 ± 8.1 - mV
Repolarization Potential (ΔΨ in - mV) ([7]; Succinate, 5 μM): 170.7 ± 8.7 - mV
Maximum potential (ΔΨ in - mV) ([7]; Succinate, 10 μM): 108.9 ± 3.8 - mV
inhibition of lipid peroxidation in RLM ([4]; FIGS. 4 and 5 (TBARS and oxygen consumption)): effectively inhibited lipid peroxidation
concentration causing toxicity on the mitochondrial bioenergetic apparatus of RLM ([8]; RLM): 2.5 µM
ADP/O ([8]; RLM, Glutamate/Malate, 2.5 μM): 2.2 ± 0.1
RCR ([8]; RLM, Glutamate/Malate, 2.5 μM): 4.2 ± 0.6
ADP/O ([8]; RLM, Glutamate/Malate, 5 μM): 1.9 ± 0.1
RCR ([8]; RLM, Glutamate/Malate, 5 μM): 2.7 ± 0.3
ADP/O ([8]; RLM, Glutamate/Malate, 10 μM): 2.0 ± 0.2
RCR ([8]; RLM, Glutamate/Malate, 10 μM): 1.3 ± 0.1
ADP/O ([8]; RLM, Succinate, 2.5 μM): 1.3 ± 0.1
RCR ([8]; RLM, Succinate, 2.5 μM): 2.6 ± 0.2
ADP/O ([8]; RLM, Succinate, 5 μM): 1.3 ± 0.1
RCR ([8]; RLM, Succinate, 5 μM): 2.4 ± 0.2
effect on RCR and ADP/O parameters ([8]; RLM, all tested concentrations (2.5-10 μM)): significant decrease of RCR and ADP/O parameters
uncoupling of RLM ([8]; succinate, highest concentration tested (10 μM)): completely uncoupled

Compound: O=C(O)c1ccc(O)c(O)c1 [Protocatechuic acid]
Ep (redox potential) [2]: 0.257 V
IC50 [3]: 27.6 µM
prevention of TBARS formation / mitochondria lipid peroxidation [4]: not effective
IC50 [5]: 30.1 µM
IC50 [6]: 5.8 µM
ability to chelate ferrous iron [1]: able to chelate iron efficiently

More lines, now with the values ahead:

Ep (redox potential) [2]: 0.099 V
IC50 [3]: 26.8 µM
IC50 [5]: 31.1 µM
IC50 [6]: 4.5 µM
Compound: Cc1c(C)c2c(c(C)c1O)CCC(C)(C(=O)O)O2 (centres unmarked) [Trolox]

IC50 [3]: 26.3 µM
IC50 [5]: 30.9 µM
IC50 [6]: 5.8 µM
Compound: Vitamin E
